{"source": "patent US5643601A", "about": "“Phospholipid-and fluorocarbon-containing cosmetic” (Lancaster Group AG, priority 1992, dated 1997)", "key": {"[1]": {"test": "Critical solubility temperature (CST) of fluorocarbons in n-hexane", "text": "(§1) The fluorocarbons can be selected for O2 solubility, partial vapour pressure and lipid solubility according to the specific intended application. The critical solubility temperature of the fluorocarbons (CST) in n-hexane correlates with their solubility in lipids, e.g. cell membranes, and is thus a measure of the rate of release through the skin. […] It is thus possible by mixing various fluorocarbons to set defined CST values which are often not realisable by means of individual compounds.\nStarting from these values, the desired characteristics for the penetration of the skin with the aid of a cosmetic composition can be selected for mixtures of fluorocarbons."}, "skin [2]": {"tested_on": "skin", "test": "Release of fluorocarbons through the skin", "text": "as §1"}, "[3]": {"test": "O2 solubility of fluorocarbons (Table 1)", "type": "physicochemical", "description": "(§2) Some selected fluorocarbons and their O2 solubility, their vapour pressure and their critical solubility temperature are shown in Table 1."}, "[4]": {"test": "Vapour pressure of fluorocarbons (Table 1)", "type": "physicochemical", "description": "as §2"}, "skin [5]": {"tested_on": "skin", "details": "in words; cited from earlier work"}}, "note": "Read-outs that look alike come from different tables or passages of the source.", "data": [{"smiles": "FC(F)(F)C(F)(F)C(F)(F)C(F)(F)N(C(F)(F)C(F)(F)C(F)(F)C(F)(F)F)C(F)(F)C(F)(F)C(F)(F)C(F)(F)F", "note": "[F-tributylamine]", "values": [{"measurement": "CST (critical solubility temperature)", "setting": "[1]; in n-hexane", "value": 59, "unit": "°C"}, {"measurement": "rate of release through the skin / half-life of release", "setting": "skin [2]; in words, correlated with CST", "value": "high half-life of release"}, {"measurement": "O2 solubility", "setting": "[3]", "value": "40 ml of O2 /100 ml of Fc"}, {"measurement": "Vapour Pressure P37° C.", "setting": "[4]; 37° C.", "value": 1, "unit": "mm Hg"}]}, {"smiles": "FC(F)(F)C(F)(F)C(F)(F)C(F)(F)C1(F)OC(F)(F)C(F)(F)C1(F)F", "note": "(stereo not drawn) [Perfluorobutyl-tetrahydrofuran]", "values": [{"measurement": "CST (critical solubility temperature)", "setting": "[1]; in n-hexane", "value": 29, "unit": "°C"}, {"measurement": "O2 solubility", "setting": "[3]", "value": "52 ml of O2 /100 ml of Fc"}, {"measurement": "Vapour Pressure P37° C.", "setting": "[4]; 37° C.", "value": 51, "unit": "mm Hg"}]}, {"smiles": "OO", "note": "[hydrogen peroxide]", "values": [{"measurement": "skin irritation / side effects", "setting": "skin [5]", "value": "considerable side effects such as the skin irritations"}]}, {"smiles": "FC(F)(F)C(F)(F)C(F)(F)C(F)(F)C(F)(F)C(F)(F)C(F)(F)C(F)(F)Br", "note": "[Perfluorooctyl bromide]", "values": [{"measurement": "CST (critical solubility temperature)", "setting": "[1]", "value": -24.5, "unit": "°C"}, {"measurement": "rate of release through the skin / half-life of release", "setting": "skin [2]", "value": "released relatively rapidly"}, {"measurement": "O2 solubility", "setting": "[3]", "value": "50 ml of O2 /100 ml of Fc"}, {"measurement": "Vapour Pressure P37° C.", "setting": "[4]; 37° C.", "value": 14, "unit": "mm Hg"}]}, {"smiles": "FC(F)(F)C(F)(F)C(F)(F)C(F)(F)C=CC(F)(F)C(F)(F)C(F)(F)C(F)(F)F", "note": "[Bis-F(butyl)ethene]", "values": [{"measurement": "CST (critical solubility temperature)", "setting": "[1]; in n-hexane", "value": 22.5, "unit": "°C"}, {"measurement": "O2 solubility", "setting": "[3]", "value": "50 ml of O2 /100 ml of Fc"}, {"measurement": "Vapour Pressure P37° C.", "setting": "[4]; 37° C.", "value": 12.6, "unit": "mm Hg"}]}, {"smiles": "FC(F)(F)C1(F)C(F)(F)C(F)(F)C(F)(F)C(F)(F)C1(F)F", "note": "[F-methylcyclohexane]", "values": [{"measurement": "CST (critical solubility temperature)", "setting": "[1]; in n-hexane", "value": 8.2, "unit": "°C"}, {"measurement": "O2 solubility", "setting": "[3]", "value": "57 ml of O2 /100 ml of Fc"}, {"measurement": "Vapour Pressure P37° C.", "setting": "[4]; 37° C.", "value": 180, "unit": "mm Hg"}]}, {"smiles": "FC(F)(F)C(F)(F)C(F)(F)C(F)(F)C(F)(F)C(F)(F)OC(F)(F)C(F)(F)C(F)(F)C(F)(F)C(F)(F)C(F)(F)F", "note": "[F-dihexyl ether]", "values": [{"measurement": "CST (critical solubility temperature)", "setting": "[1]; in n-hexane", "value": 59, "unit": "°C"}, {"measurement": "O2 solubility", "setting": "[3]", "value": "45 ml of O2 /100 ml of Fc"}, {"measurement": "Vapour Pressure P37° C.", "setting": "[4]; 37° C.", "value": 2, "unit": "mm Hg"}]}, {"smiles": "FC1(F)C(F)(F)C(F)(F)C2(F)C(F)(F)C(F)(F)C(F)(F)C(F)(F)C2(F)C1(F)F", "note": "(stereo not drawn) [Perfluorodecalin]", "values": [{"measurement": "CST (critical solubility temperature)", "setting": "[1]", "value": 22, "unit": "°C"}, {"measurement": "rate of release through the skin / half-life of release", "setting": "skin [2]", "value": "released relatively rapidly"}, {"measurement": "O2 solubility", "setting": "[3]", "value": "40 ml of O2 /100 ml of Fc"}, {"measurement": "Vapour Pressure P37° C.", "setting": "[4]; 37° C.", "value": 12.5, "unit": "mm Hg"}]}, {"smiles": "FC(F)(F)C(F)(F)C(F)(F)C(F)(F)C(F)(F)C(F)(F)F", "note": "[F-hexane]", "values": [{"measurement": "O2 solubility", "setting": "[3]", "value": "58 ml of O2 /100 ml of Fc"}, {"measurement": "Vapour Pressure P37° C.", "setting": "[4]", "value": 414, "unit": "mm Hg"}]}, {"smiles": "FC1(F)OC(F)(F)C(F)(F)N(C(F)(F)C2(F)C(F)(F)C(F)(F)C(F)(F)C(F)(F)C2(F)F)C1(F)F", "note": "[F-cyclohexylmethyl-morpholine]", "values": [{"measurement": "CST (critical solubility temperature)", "setting": "[1]; in n-hexane", "value": 38.5, "unit": "°C"}, {"measurement": "O2 solubility", "setting": "[3]", "value": "42 ml of O2 /100 ml of Fc"}, {"measurement": "Vapour Pressure P37° C.", "setting": "[4]; 37° C.", "value": 4, "unit": "mm Hg"}]}, {"smiles": "FC(F)(F)C(F)(F)C(F)(F)N(C(F)(F)C(F)(F)C(F)(F)F)C(F)(F)C(F)(F)C(F)(F)F", "note": "[F-tripropylamine]", "values": [{"measurement": "CST (critical solubility temperature)", "setting": "[1]", "value": 43, "unit": "°C"}, {"measurement": "O2 solubility", "setting": "[3]", "value": "45 ml of O2 /100 ml of Fc"}, {"measurement": "Vapour Pressure P37° C.", "setting": "[4]; 37° C.", "value": 18.5, "unit": "mm Hg"}]}]}
